Experimental data from US6310086A, “Indole derivatives and medicinal compositions containing the same” (Kissei Pharmaceutical Co., Ltd., priority 1998, dated 2001).
Counter-ions that a name gives are not always drawn. Like-named read-outs stand apart in the source and are kept apart here.

Legend:
[1] = Test for Rate of Hydrolysis by Endogenous Enzyme in whole blood; type: in vitro ADME, rat (male Wistar); settings: for metabolised at 0.25 h: read-out: Decomposition rate, 15 minutes after; for metabolised at 1 h: read-out: Decomposition rate, 1 hour after; for metabolised at 2 h: read-out: Decomposition rate, 2 hours after
Protocol: (§1) (1 μg), and the mixture was incubated at 37° C. After 15 minutes, 30 minutes, 1 hour and 2 hours, 0.7M aqueous sodium fluoride solution (0.5 ml) as an esterase inhibitor was added to each sample to stop the reaction.
(§2) Analytical column: Inertsil ODS-3 (4.6×250 mm)
(§3) Mobile phase: acetonitrile/20 mM acetate buffer (pH 5.0)=40/60 Column temperature: 50° C.
(§4) Fluorometry: excitation wavelength 270 nm, emission wavelength 435 nm

[2] = system: male SD rats; assay: Acute Toxicity Test (oral); type: in vivo, rat (SD); settings: 1000 mg/kg
Protocol: Male SD rats of 7 weeks age (n=5; 190-210 g in body weight) were fasted for 18 hours. (R)-3-[7-Carbamoyl-5-[2-[[2-(2-ethoxyphenoxy)ethyl]amino]propyl]-1H-indol- 1-yl]propyl pivalate hydrochloride which was suspended in 0.5% aqueous methylcellulose solution at a concentration of 100 mg/ml was orally administered to the rats at a dose of 1000 mg/kg.

[3] = system: Endogenous Enzyme; assay: Test for Rate of Hydrolysis by Endogenous Enzyme in whole blood; type: in vitro ADME, rat (male Wistar); settings: blood, 2 hours
Protocol: as §1, §2, §3, §4

[4] = Stability Test in aqueous solution; type: physicochemical; settings: pH 5, decomposed into Compound A
Protocol: The test compounds were dissolved in 0. 1M acetate buffer (pH 5.0) to prepare 0.1% solutions. Each 0.1% solution was allowed to stand in the dark for 28 days at 40° C., 50° C., 60° C. and 70° C., respectively.

[5] = biological target: T1, α1-adrenoceptor (Rattus norvegicus, UniProt P43140); assay: Test for Measuring α1-adrenoceptor Blocking Effect (inhibition of norepinephrine contraction of isolated ductus deferens); type: cell-based, rat (male Wistar); settings: 10 μM norepinephrine, propranorol 1 μM and yohimbine 0.1 μM
T1 construct: Ductus deferenses (about 1.5 cm from testis side) were isolated; from tissue; host or cells: isolated ductus deferens (about 1.5 cm from testis side) of male Wistar rats, organ bath
T1 sequence (P43140 1-466): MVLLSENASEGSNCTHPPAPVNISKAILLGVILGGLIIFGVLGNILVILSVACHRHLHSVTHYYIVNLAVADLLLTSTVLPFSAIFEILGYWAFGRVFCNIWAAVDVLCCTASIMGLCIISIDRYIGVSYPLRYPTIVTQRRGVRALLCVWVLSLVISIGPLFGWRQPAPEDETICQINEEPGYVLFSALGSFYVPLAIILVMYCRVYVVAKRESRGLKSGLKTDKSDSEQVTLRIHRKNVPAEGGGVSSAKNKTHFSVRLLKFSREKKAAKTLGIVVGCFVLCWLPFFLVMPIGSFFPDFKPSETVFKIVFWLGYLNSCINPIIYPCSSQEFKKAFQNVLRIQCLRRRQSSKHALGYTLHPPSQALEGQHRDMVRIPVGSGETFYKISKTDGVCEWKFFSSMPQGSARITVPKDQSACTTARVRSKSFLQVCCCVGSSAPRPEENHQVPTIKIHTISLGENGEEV
Protocol: Ductus deferenses (about 1.5 cm from testis side) were isolated frommaleWistar rats (about 300 to 350 g in body weight). […] A solution of a mixture containing propranorol and yohimbine (final concentration: propranorol 1 μM and yohimbine 0.1 μM) was added into the Magnus bath. After 30 minutes, norepinephrine at the final concentration of 10 μM was added into the Magnus bath until the maximum contraction was obtained, and each preparation was washed. This procedure was repeated several times until the heights of contraction were stable. Each preparation was pre-treated with a solution containing the test compound before 30 minutes, and the contractile responses by treatment of 10 μM norepinephrine were measured. Contraction of each preparation without pre-treatment of the test compound was expressed as 100%.

[6] = Test for Measuring Drug Concentration in Aqueous Humor (2), after instillation of Compound C hydrochloride; type: in vivo, rabbit (Japanese White); settings: rabbit eye
Protocol: To the collected aqueous humor (0.1 ml) was added internal standard [(R)-3-chloro-1-(3-hydroxypropyl)-5-[2-[[2-[2-(2,2,2-trifluoroethoxy)phenoxy]ethyl]amino]propyl]-1H-indole-7-carboxamide](10 ng), and 0.1M phosphate buffer (pH7.6) and sodium chloride (about 1 g) were added to the mixture. The resulting mixture was extracted with diethyl ether (5 ml), and the diethyl ether layer was concentrated under a stream of nitrogen.
Mobile phase: acetonitrile/0.1% phosphoric acid+2 mM sodium laurylsulfate=1/1
Fluorometry: excitation wave length 270 nm, emission wave length 435 nm

[7] = rat whole blood, 37° C., 1 μg in 0.5 ml
[8] = rat whole blood, 37° C., 1 μg in 0.5 ml, read-out: Decomposition rate, 30 minutes after

Row | SMILES | metabolised at 0.5 h ([1]; blood, 30 minutes) | metabolised at 0.25 h [1, 7] | metabolised at 0.5 h [1, 8] | metabolised at 1 h [1, 7] | metabolised at 2 h [1, 7] | also measured
1 | CCC(C)(C)C(=O)OCCCn1ccc2cc(C[C@@H](C)NCCOc3ccccc3OCC(F)(F)F)cc(C(N)=O)c21 [Compound d, (R)-3-[7-Carbamoyl-5-[2-[[2-[2-(2,2,2-trifluoroethoxy)-phenoxy]ethyl]amino]propyl]-1H-indol-1-yl]propyl 2,2-Dimethylbutyrate] | ~6% | – | – | – | – | –
2 | CCOc1ccccc1OCCN[C@H](C)Cc1cc(C(N)=O)c2c(ccn2CCCOC(=O)C(C)(C)C)c1.Cl [Compound C hydrochloride, (R)-3-[7-Carbamoyl-5-[2-[[2-(2-ethoxyphenoxy)ethyl]amino]-propyl]-1H-indol-1-yl]propyl Pivalate Hydrochloride] | – | – | – | – | – | fatal rats during 24 hours after administration [2]: Any fatal rats were not observed
3 | CCCC(C)(C)C(=O)OCCCn1ccc2cc(C[C@@H](C)NCCOc3ccccc3OCC(F)(F)F)cc(C(N)=O)c21 [Compound b, (R)-3-[7-Carbamoyl-5-[2-[[2-[2-(2,2,2-trifluoroethoxy)-phenoxy]ethyl]amino]propyl]-1H-indol-1-yl]propyl 2,2-dimethylvalerate] | ~4% | – | – | – | – | –
4 | C[C@H](Cc1cc(C(N)=O)c2c(ccn2CCCOC(=O)C(C)(C)c2ccccc2)c1)NCCOc1ccccc1OCC(F)(F)F [Compound c, (R)-3-[7-Carbamoyl-5-[2-[[2-[2-(2,2,2-trifluoroethoxy)-phenoxy]ethyl]amino]propyl]1H-indol-1-yl]propyl α,α-dimethylphenylacetate] | ~2% | – | – | – | – | –
5 | C[C@H](Cc1cc(C(N)=O)c2c(ccn2CCCOC(=O)C(C)(C)C)c1)NCCOc1ccccc1OCC(F)(F)F [Compound D] | – | 54.8% | 67.1% | 86.5% | 98.6% | –
6 | C[C@H](Cc1cc(C(N)=O)c2c(ccn2CCCOC(=O)C(C)(C)C)c1)NCCOc1ccccc1OCC(F)(F)F [Compound D, (R)-3-[7-Carbamoyl-5-[2-[[2-[2-(2,2,2-trifluoroethoxy)-phenoxy]ethyl]amino]propyl]-1H-indol-1-yl]propyl Pivalate] | ~67% | – | – | – | – | conversion into Compound A after 2 hours [3]: almost Compound A after 2 hours; degraded ([4]; 40° C., about 1 month at 40° C.): ~0.1%; degraded ([4]; 70° C., about 1 month at 70° C.): ~1.1%
7 | CCCC(=O)N1CCCN(c2nc(N)c3cc(OC)c(OC)cc3n2)CC1 [Bunazosin hydrochloride] | – | – | – | – | – | IC50 [5]: 315 nM
8 | CCC(C)(C)C(=O)OCCCn1ccc2cc(C[C@@H](C)NCCOc3ccccc3OCC(F)(F)F)cc(C(N)=O)c21 [Compound d] | – | 2.1% | 5.6% | 8.4% | 21.7% | –
9 | CCC(CC)C(=O)OCCCn1ccc2cc(C[C@@H](C)NCCOc3ccccc3OCC(F)(F)F)cc(C(N)=O)c21 [Compound a] | – | 8.4% | 12% | 12.6% | 25.2% | –
10 | C[C@H](Cc1cc(C(N)=O)c2c(ccn2CCCOC(=O)C(C)(C)c2ccccc2)c1)NCCOc1ccccc1OCC(F)(F)F [Compound c] | – | 0.6% | 1.6% | 3.2% | 3.7% | –
11 | CCOc1ccccc1OCCN[C@H](C)Cc1cc(C(N)=O)c2c(ccn2CCCOC(=O)C(C)(C)C)c1 [Compound C] | – | – | – | – | – | concentration at 20 min ([6]; aqueous humor, topical or ocular, 50 ug/eye, 50 μl of 0.1% Compound C hydrochloride instilled, Compounds B and C determined, read-out: Drug concentrations in aqueous humor, 20 minutes after): < 1 ng/mL; concentration at 2 h ([6]; aqueous humor, topical or ocular, 50 ug/eye, 50 μl of 0.1% Compound C hydrochloride instilled, Compounds B and C determined, read-out: Drug concentrations in aqueous humor, 2 hours after): < 1 ng/mL; concentration at 6 h ([6]; aqueous humor, topical or ocular, 50 ug/eye, 50 μl of 0.1% Compound C hydrochloride instilled, Compounds B and C determined, read-out: Drug concentrations in aqueous humor, 6 hours after): < 1 ng/mL
12 | CCCC(C)(C)C(=O)OCCCn1ccc2cc(C[C@@H](C)NCCOc3ccccc3OCC(F)(F)F)cc(C(N)=O)c21 [Compound b] | – | 2.2% | 3.8% | 7.5% | 10.2% | –
13 | CCOc1ccccc1OCCN[C@H](C)Cc1cc(C(N)=O)c2c(ccn2CCCOC(=O)C(C)(C)C)c1 [Compound C, (R)-3-[7-Carbamoyl-5-[2-[[2-(2-ethoxyphenoxy)ethyl]amino]-propyl]-1H-indol-1-yl]propyl Pivalate] | – | – | – | – | – | detection of the ester in aqueous humor ([6]; even after 20 minutes): could not be detected in aqueous humor at all even after 20 minutes
14 | CCC(CC)C(=O)OCCCn1ccc2cc(C[C@@H](C)NCCOc3ccccc3OCC(F)(F)F)cc(C(N)=O)c21 [Compound a, (R)-3-[7-Carbamoyl-5-[2-[[2-[2-(2,2,2-trifluoroethoxy)-phenoxy]ethyl]amino]propyl]-1H-indol-1-yl]propyl 2-ethyl-butyrate] | ~12% | – | – | – | – | –
